Data as given in ChEMBL document CHEMBL1159073, “Inhibition of IKK-beta: a new development in the mechanism of the anti-obesity effects of PTP1B inhibitors SA18 and SA32” (Bioorg Med Chem Lett, 2010).
pIC50: −log10 of the molar value. Calls of active or inactive are those of the source. The calls are words filed in the database; no cut-off is given here.

Assays:
Mus musculus [1] = experiment: Antiobesity activity in high fat diet-induced obese C57BL/6J Jms Slc mouse model assessed as change in body weight administered through diet for 28 days (reference value: 33.4+/-2.8); format: functional
3T3-L1 [2] = experiment: Inhibition of IkappaB-alpha degradation in LPS-stimulated mouse 3T3L1 cells at 50 uM pretreated 30 mins before LPS containing cytokine mixture challenge measured after 30 mins by Western blotting; format: functional, cell-based
Mus musculus [3] = experiment: Antiobesity activity in high fat diet-induced obese C57BL/6J Jms Slc mouse model assessed as retroperitoneal adipose tissue weight administered through diet for 28 days (reference value: 0.51+/-0.11); format: functional
3T3-L1 [4] = experiment: Inhibition of IkappaB-alpha degradation in LPS-stimulated mouse 3T3L1 cells at 50 uM pretreated 30 mins before LPS containing cytokine mixture challenge measured after 60 mins by Western blotting; format: functional, cell-based
Mus musculus [5] = organism: Mus musculus; experiment: Inhibition of IkappaB-alpha degradation in LPS-stimulated mouse […] cells at 50 uM pretreated 30 mins before LPS containing cytokine mixture challenge measured by Western blotting; format: functional
Mus musculus [6] = experiment: Antiobesity activity in high fat diet-induced obese C57BL/6J Jms Slc mouse model assessed as epididymal adipose tissue weight administered through diet for 28 days (reference value: 1.8+/-0.49); format: functional
Mus musculus [7] = experiment: Antiobesity activity in high fat diet-induced obese C57BL/6J Jms Slc mouse model assessed as blood total cholesterol level administered through diet for 28 days (reference value: 141+/-10); format: functional
Mus musculus [8] = experiment: Antiobesity activity in high fat diet-induced obese C57BL/6J Jms Slc mouse model assessed as blood nonesterified free fatty acid level administered through diet for 28 days (reference value: 0.35+/-0.09); format: functional
Mus musculus [9] = experiment: Antiobesity activity in high fat diet-induced obese C57BL/6J Jms Slc mouse model assessed as blood triglyceride level administered through diet for 28 days (reference value: 63+/-32); format: functional
[10] = biological target: T1, Inhibitor of nuclear factor kappa-B kinase subunit beta (Homo sapiens, UniProt O14920); experiment: Inhibition of IKK-beta by tome resolved fluorescence assay
T1 sequence (O14920 whole entry): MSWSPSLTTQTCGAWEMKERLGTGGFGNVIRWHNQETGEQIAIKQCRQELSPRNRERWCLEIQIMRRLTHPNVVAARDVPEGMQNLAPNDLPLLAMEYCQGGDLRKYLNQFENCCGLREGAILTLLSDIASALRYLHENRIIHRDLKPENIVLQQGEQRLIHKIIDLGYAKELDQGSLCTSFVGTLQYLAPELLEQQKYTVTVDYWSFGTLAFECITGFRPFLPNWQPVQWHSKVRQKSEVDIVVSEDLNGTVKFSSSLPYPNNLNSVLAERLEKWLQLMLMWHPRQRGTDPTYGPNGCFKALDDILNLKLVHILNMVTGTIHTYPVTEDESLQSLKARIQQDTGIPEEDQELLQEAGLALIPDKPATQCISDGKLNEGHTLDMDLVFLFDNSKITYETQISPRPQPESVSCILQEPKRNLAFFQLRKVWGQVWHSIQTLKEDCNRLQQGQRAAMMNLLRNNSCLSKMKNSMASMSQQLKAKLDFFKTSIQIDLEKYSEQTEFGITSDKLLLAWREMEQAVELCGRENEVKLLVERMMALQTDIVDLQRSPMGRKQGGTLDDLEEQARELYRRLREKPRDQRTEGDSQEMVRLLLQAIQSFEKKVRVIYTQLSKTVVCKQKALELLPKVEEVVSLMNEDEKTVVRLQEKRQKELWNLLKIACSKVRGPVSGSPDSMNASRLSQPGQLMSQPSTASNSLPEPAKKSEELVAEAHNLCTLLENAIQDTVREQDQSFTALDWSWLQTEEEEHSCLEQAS

Compound | Activity (Mus musculus [1]) [g] | inhibition (3T3-L1 [2]) | Activity (Mus musculus [3]) [g] | inhibition (3T3-L1 [4]) | inhibition (Mus musculus [5]) | Activity (Mus musculus [6]) [g] | Activity (Mus musculus [7]) [mg/dL] | Activity (Mus musculus [8]) [mEq/L] | Activity (Mus musculus [9]) [mg/dL] | pIC50 [10]
O=C(O)c1cc(-c2ccccc2)cc(Cc2cc(-c3ccccc3)cc(C(=O)O)c2O)c1O | 28.9 | Active | 0.26 | Active | Active | 0.83 | 133 | 0.14 | 48 | –
O=C(O)c1cc(Cc2cc(C(=O)O)c(O)c(-c3ccccc3)c2)cc(-c2ccccc2)c1O | 29.2 | Active | 0.26 | Active | Active | 0.86 | 129 | 0.24 | 42 | –
O=C(Nc1cc(Cl)cc2c1[nH]c1cnccc12)c1cccnc1 | – | – | – | – | – | – | – | – | – | 6.82
